Results reported in patent US20250312352A1, “GLP-1R MODULATING COMPOUNDS” (Gilead Sciences, Inc., priority 2021, published 2025).

Target: T1, GLP-1R (Homo sapiens, UniProt P43220)
T1 construct: host or cells: CHO cells
Assay: GLP-1R activation cAMP assay (Assay 1 or Assay 2)
Assay type: cell-based
Conditions: cAMP increase in CHO cells stably expressing GLP-1R; compounds run on one of the two cAMP assays
In short: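 CHO cells stably expressing human GLP-1R were incubated 1 h in HBSS/20 mM HEPES/0.1% BSA, then exposed to 10-point agonist dilutions for 30 min at 37 °C. cAMP increase was measured with an HTRF Gs dynamic kit; EC50 from sigmoidal fit of response versus log concentration.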

T1 sequence (P43220 24-463): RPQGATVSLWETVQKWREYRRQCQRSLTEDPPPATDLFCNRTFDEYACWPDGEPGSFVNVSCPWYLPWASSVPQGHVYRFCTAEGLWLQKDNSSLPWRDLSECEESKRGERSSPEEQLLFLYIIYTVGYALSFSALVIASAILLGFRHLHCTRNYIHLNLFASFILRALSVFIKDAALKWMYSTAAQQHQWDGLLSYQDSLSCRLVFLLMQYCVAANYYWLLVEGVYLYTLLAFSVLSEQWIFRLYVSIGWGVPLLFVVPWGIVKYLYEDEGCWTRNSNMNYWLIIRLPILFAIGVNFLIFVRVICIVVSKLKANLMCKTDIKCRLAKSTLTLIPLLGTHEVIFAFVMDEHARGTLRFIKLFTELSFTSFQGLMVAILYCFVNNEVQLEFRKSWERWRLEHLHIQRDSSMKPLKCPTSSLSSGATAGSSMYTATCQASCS

Row | SMILES | EC50 [nM]
1 | NC(=O)c1ncc(COc2cccc(-c3cc(F)c(Cc4nc5ccc(C(=O)O)cc5n4C[C@@H]4CCO4)cc3F)n2)s1 [Example 165, (S)-2-(4-(6-((2-carbamoylthiazol-5-yl)methoxy)pyridin-2-yl)-2,5-difluorobenzyl)-1-(oxetan-2-ylmethyl)-1H-benzo[d]imidazole-6-carboxylic acid] | 2
2 | N#Cc1ncc(COc2cccc(-c3cc(F)c(Cc4nc5ccc(C(=O)O)cc5n4C[C@@H]4CCO4)cc3F)n2)s1 [Example 166, (S)-2-(4-(6-((2-cyanothiazol-5-yl)methoxy)pyridin-2-yl)-2,5-difluorobenzyl)-1-(oxetan-2-ylmethyl)-1H-benzo[d]imidazole-6-carboxylic acid] | 0.62
3 | O=C(O)c1ccc2nc(Cc3cc(F)c(-c4cccc(OCc5cncs5)n4)cc3F)n(C[C@@H]3CCO3)c2c1 [Example 167, (S)-2-(2,5-difluoro-4-(6-(thiazol-5-ylmethoxy)pyridin-2-yl)benzyl)-1-(oxetan-2-ylmethyl)-1H-benzo[d]imidazole-6-carboxylic acid] | 0.87
4 | N#Cc1ncc(COc2cccc(-c3cc(F)c(Cc4nc5ccc(C(=O)O)cc5n4C[C@@H]4CCO4)cc3F)n2)o1 [Example 168, (S)-2-(4-(6-((2-cyanooxazol-5-yl)methoxy)pyridin-2-yl)-2,5-difluorobenzyl)-1-(oxetan-2-ylmethyl)-1H-benzo[d]imidazole-6-carboxylic acid] | 21.3
5 | O=C(O)c1ccc2nc(Cc3cc(F)c(-c4cccc(OCc5cnco5)n4)cc3F)n(C[C@@H]3CCO3)c2c1 [Example 169, (S)-2-(2,5-difluoro-4-(6-(oxazol-5-ylmethoxy)pyridin-2-yl)benzyl)-1-(oxetan-2-ylmethyl)-1H-benzo[d]imidazole-6-carboxylic acid] | 11.8
6 | N#Cc1nc(COc2cccc(-c3cc(F)c(Cc4nc5ccc(C(=O)O)cc5n4C[C@@H]4CCO4)cc3F)n2)cs1 [Example 170, (S)-2-(4-(6-((2-cyanothiazol-4-yl)methoxy)pyridin-2-yl)-2,5-difluorobenzyl)-1-(oxetan-2-ylmethyl)-1H-benzo[d]imidazole-6-carboxylic acid] | 8.29
7 | NC(=O)c1ccc(COc2cccc(-c3cc(F)c(Cc4nc5ccc(C(=O)O)cc5n4C[C@@H]4CCO4)cc3F)n2)o1 [Example 171, (S)-2-(4-(6-((5-carbamoylfuran-2-yl)methoxy)pyridin-2-yl)-2,5-difluorobenzyl)-1-(oxetan-2-ylmethyl)-1H-benzo[d]imidazole-6-carboxylic acid] | 2.94
8 | NC(=O)c1cc(F)c(COc2cccc(-c3cc(F)c(Cc4nc5ccc(C(=O)O)cc5n4C[C@@H]4CCO4)cc3F)n2)cc1F [Example 172, (S)-2-(4-(6-((4-carbamoyl-2,5-difluorobenzyl)oxy)pyridin-2-yl)-2,5-difluorobenzyl)-1-(oxetan-2-ylmethyl)-1H-benzo[d]imidazole-6-carboxylic acid] | 2.57
9 | NC(=O)c1ccc(COc2cccc(-c3ccc(Cc4nc5ccc(C(=O)O)cc5n4C[C@@H]4CCO4)cc3F)n2)cn1 [Example 173, (S)-2-(4-(6-((6-carbamoylpyridin-3-yl)methoxy)pyridin-2-yl)-3-fluorobenzyl)-1-(oxetan-2-ylmethyl)-1H-benzo[d]imidazole-6-carboxylic acid] | 23.2
10 | COCCn1c(Cc2cc(F)c(-c3cccc(OCc4ccc(C(N)=O)nc4)n3)cc2F)nc2ccc(C(=O)O)cc21 [Example 174, 2-(4-(6-((6-carbamoylpyridin-3-yl)methoxy)pyridin-2-yl)-2,5-difluorobenzyl)-1-(2-methoxyethyl)-1H-benzo[d]imidazole-6-carboxylic acid] | 40.6
11 | N#CCNC(=O)c1ccc(COc2cccc(-c3cc(F)c(Cc4nc5ccc(C(=O)O)cc5n4C[C@@H]4CCO4)cc3F)n2)cn1 [Example 175, (S)-2-(4-(6-((6-((cyanomethyl)carbamoyl)pyridin-3-yl)methoxy)pyridin-2-yl)-2,5-difluorobenzyl)-1-(oxetan-2-ylmethyl)-1H-benzo[d]imidazole-6-carboxylic acid] | 0.11
12 | NC(=O)CNC(=O)c1ccc(COc2cccc(-c3cc(F)c(Cc4nc5ccc(C(=O)O)cc5n4C[C@@H]4CCO4)cc3F)n2)cn1 [Example 176, (S)-2-(4-(6-((6-((2-amino-2-oxoethyl)carbamoyl)pyridin-3-yl)methoxy)pyridin-2-yl)-2,5-difluorobenzyl)-1-(oxetan-2-ylmethyl)-1H-benzo[d]imidazole-6-carboxylic acid] | 2.19
13 | Cn1cnc(COc2cccc(-c3cc(F)c(Cc4nc5ccc(C(=O)O)cc5n4C[C@@H]4CCO4)cc3F)n2)c1 [Example 177, (S)-2-(2,5-difluoro-4-(6-((1-methyl-1H-imidazol-4-yl)methoxy)pyridin-2-yl)benzyl)-1-(oxetan-2-ylmethyl)-1H-benzo[d]imidazole-6-carboxylic acid] | 34.6
14 | Cn1cncc1COc1cccc(-c2cc(F)c(Cc3nc4ccc(C(=O)O)cc4n3C[C@@H]3CCO3)cc2F)n1 [Example 178, (S)-2-(2,5-difluoro-4-(6-((1-methyl-1H-imidazol-5-yl)methoxy)pyridin-2-yl)benzyl)-1-(oxetan-2-ylmethyl)-1H-benzo[d]imidazole-6-carboxylic acid] | 23.6
15 | Cc1ncc(COc2cccc(-c3cc(F)c(Cc4nc5ccc(C(=O)O)cc5n4C[C@@H]4CCO4)cc3F)n2)n1C [Example 179, (S)-2-(4-(6-((1,2-dimethyl-1H-imidazol-5-yl)methoxy)pyridin-2-yl)-2,5-difluorobenzyl)-1-(oxetan-2-ylmethyl)-1H-benzo[d]imidazole-6-carboxylic acid] | 4.59
16 | Cc1nc(COc2cccc(-c3cc(F)c(Cc4nc5ccc(C(=O)O)cc5n4C[C@@H]4CCO4)cc3F)n2)cn1C(F)F [Example 180, (S)-2-(4-(6-((1-(difluoromethyl)-2-methyl-1H-imidazol-4-yl)methoxy)pyridin-2-yl)-2,5-difluorobenzyl)-1-(oxetan-2-ylmethyl)-1H-benzo[d]imidazole-6-carboxylic acid] | 28
17 | O=C(O)c1ccc2nc(Cc3cc(F)c(-c4cccc(OCc5cc[nH]n5)n4)cc3F)n(C[C@@H]3CCO3)c2c1 [Example 181, (S)-2-(4-(6-((1H-pyrazol-3-yl)methoxy)pyridin-2-yl)-2,5-difluorobenzyl)-1-(oxetan-2-ylmethyl)-1H-benzo[d]imidazole-6-carboxylic acid] | 5.99
18 | CC1(C)COC[C@@H]1n1c(Cc2cc(F)c(-c3cccc(OCc4ncc(C#N)s4)n3)cc2F)nc2ccc(C(=O)O)cc21 [Example 182, (R)-2-(4-(6-((5-cyanothiazol-2-yl)methoxy)pyridin-2-yl)-2,5-difluorobenzyl)-1-(4,4-dimethyltetrahydrofuran-3-yl)-1H-benzo[d]imidazole-6-carboxylic acid] | 0.19
19 | N#CC1(NC(=O)c2ccc(COc3cccc(-c4cc(F)c(Cc5nc6ccc(C(=O)O)cc6n5C[C@@H]5CCO5)cc4F)n3)cn2)CC1 [Example 183, (S)-2-(4-(6-((6-((1-cyanocyclopropyl)carbamoyl)pyridin-3-yl)methoxy)pyridin-2-yl)-2,5-difluorobenzyl)-1-(oxetan-2-ylmethyl)-1H-benzo[d]imidazole-6-carboxylic acid] | 0.26
20 | N#CC1(NC(=O)c2cc(Cl)c(COc3cccc(-c4cc(F)c(Cc5nc6ccc(C(=O)O)cc6n5C[C@@H]5CCO5)cc4F)n3)cn2)CC1 [Example 184, (S)-2-(4-(6-((4-chloro-6-((1-cyanocyclopropyl)carbamoyl)pyridin-3-yl)methoxy)pyridin-2-yl)-2,5-difluorobenzyl)-1-(oxetan-2-ylmethyl)-1H-benzo[d]imidazole-6-carboxylic acid] | 0.12
21 | N#CC1(NC(=O)c2cc(Cl)c(COc3cccc(-c4cc(F)c(Cc5nc6c(F)cc(C(=O)O)cc6n5C[C@@H]5CCO5)cc4F)n3)cn2)CC1 [Example 185, (S)-2-(4-(6-((4-chloro-6-((1-cyanocyclopropyl)carbamoyl)pyridin-3-yl)methoxy)pyridin-2-yl)-2,5-difluorobenzyl)-4-fluoro-1-(oxetan-2-ylmethyl)-1H-benzo[d]imidazole-6-carboxylic acid] | 0.08
22 | O=C(O)c1ccc2nc(Cc3cc(F)c(-c4cccc(OCc5cnc(C(=O)NC6(C(F)F)CC6)cc5Cl)n4)cc3F)n(C[C@@H]3CCO3)c2c1 [Example 186, (S)-2-(4-(6-((4-chloro-6-((1-(difluoromethyl)cyclopropyl)carbamoyl)pyridin-3-yl)methoxy)pyridin-2-yl)-2,5-difluorobenzyl)-1-(oxetan-2-ylmethyl)-1H-benzo[d]imidazole-6-carboxylic acid] | 0.91
23 | N#CC1(NC(=O)c2cc(Cl)c(COc3cccc(-c4cc(F)c(Cc5nc6ccc(C(=O)O)cc6n5C[C@@H]5CCO5)cc4F)n3)cn2)COC1 [Example 187, (S)-2-(4-(6-((4-chloro-6-((3-cyanooxetan-3-yl)carbamoyl)pyridin-3-yl)methoxy)pyridin-2-yl)-2,5-difluorobenzyl)-1-(oxetan-2-ylmethyl)-1H-benzo[d]imidazole-6-carboxylic acid] | 0.12
24 | N#CC1(NC(=O)c2cc(Cl)c(COc3cccc(-c4cc(F)c(Cc5nc6c(F)cc(C(=O)O)cc6n5C[C@@H]5CCO5)cc4F)n3)cn2)COC1 [Example 188, (S)-2-(4-(6-((4-chloro-6-((3-cyanooxetan-3-yl)carbamoyl)pyridin-3-yl)methoxy)pyridin-2-yl)-2,5-difluorobenzyl)-4-fluoro-1-(oxetan-2-ylmethyl)-1H-benzo[d]imidazole-6-carboxylic acid] | 0.05
25 | N#CC1(NC(=O)c2cc(Cl)c(COc3cccc(-c4cc(F)c(Cc5nc6ccc(C(=O)O)cc6n5C[C@@H]5CCO5)cc4F)n3)cn2)CCC1 [Example 189, (S)-2-(4-(6-((4-chloro-6-((1-cyanocyclobutyl)carbamoyl)pyridin-3-yl)methoxy)pyridin-2-yl)-2,5-difluorobenzyl)-1-(oxetan-2-ylmethyl)-1H-benzo[d]imidazole-6-carboxylic acid] | 0.3
